This is an account of results in ChEMBL document CHEMBL3217714, “Synthesis and anti HSV-1 evaluation of novel indole-3,4-diones” (Medchemcomm, 2011).

Calls of active or inactive are those of the source. The rule behind the calls is not given here.

The subject of data set [1] is Vero. Briefly: Cytotoxicity against African green monkey Vero cells at 40 to 100 uM compound in water by trypan blue exclusion assay. The note with it: chlorocebus sabaeus. It counts as cell-based.
Data set [2] concerns Vero. Briefly: Cytotoxicity against African green monkey Vero cells at 1 to 100 uM compound in DMSO by trypan blue exclusion assay. It counts as cell-based. The note with it: chlorocebus sabaeus.
Data set [3] deals with Human alphaherpesvirus 1. Briefly: Antiviral activity against HSV-1 infected in African green monkey Vero cells at 10 to 100 uM by plaque reduction assay. It counts as functional, organism-based.
Data set [4] deals with Human alphaherpesvirus 1. Briefly: Antiviral activity against HSV-1 infected in African green monkey Vero cells assessed as reduction in plaque formation at 10 to 100 uM by inverted microscopy. It counts as functional, organism-based.

In the case of `CC1N=C2CCCC(=O)C2C1=O` (stereo not given), the Activity result in data set [1] and in data set [2] was “Non-toxic” throughout. Also, in data set [3], the inhibition result is “Dose-dependent effect”.
For `CC1CC(=O)C2C(=O)C(C)N=C2C1` (stereo not given), the Activity entry in data set [1] and in data set [2] was “Non-toxic” in each case. Also, in data set [4], the result was Active. In addition, in data set [3], the inhibition entry is “Dose-dependent effect”.
Take `CC1N=C2CC(C)(C)CC(=O)C2C1=O` (stereo not given): the Activity entry in data set [1] and in data set [2] was “Non-toxic” in each case. For the same compound, the inhibition result in data set [3] is “Dose-dependent effect”.
